According to patent publication US12599136B2, “Substituted isophthalic acid diamides and their use as herbicides” (Bayer Aktiengesellschaft, priority 2020, dated 2026):

Assays:
Format in all cases: in vivo
Alopecurus myosuroides [1] = test: Pre-emergence herbicidal action against ALOMY; conditions: visual score after 3 weeks vs untreated controls
Summary of the method: (§1)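 Visual rating at 3 weeks vs untreated pots; 0–100% scale, 100% = plants died. Treatment: aqueous WP/EC spray onto covering soil, 600–800 l/ha, 0.2% wetter, seeds in sandy loam.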

Echinochloa crus-galli [2] = test: Pre-emergence herbicidal action against ECHCG; conditions: visual score after 3 weeks vs untreated controls
Summary of the method: as §1

Veronica persica [3] = test: Pre-emergence herbicidal action against VERPE; conditions: 320 g/ha
Summary of the method: as §1

Amaranthus retroflexus [4] = test: Post-emergence herbicidal action against AMARE; conditions: visual assessment about 3 weeks after treatment
Summary of the method: (§2)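 Greenhouse pot plants in sandy loam were sprayed at the one-leaf stage, 2 to 3 weeks after sowing, with WP or EC formulations as aqueous suspension or emulsion (600 to 800 l/ha water, 0.2% wetting agent). About 3 weeks later, damage was scored visually against untreated controls as % action (100% = dead, 0% = like control).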

Abutilon theophrasti [5] = test: Pre-emergence herbicidal action against ABUTH; conditions: visual score after 3 weeks vs untreated controls
Summary of the method: as §1

Amaranthus retroflexus [6] = test: Pre-emergence herbicidal action against AMARE; conditions: visual score after 3 weeks vs untreated controls
Summary of the method: as §1

Setaria viridis [7] = test: Post-emergence herbicidal action against SETVI; conditions: visual assessment about 3 weeks after treatment
Summary of the method: as §2

Setaria viridis [8] = test: Pre-emergence herbicidal action against SETVI
Summary of the method: as §1

Alopecurus myosuroides [9] = test: Post-emergence herbicidal action against ALOMY
Summary of the method: as §2

Stellaria media [10] = test: Pre-emergence herbicidal action against STEME
Summary of the method: as §1

Hordeum murinum [11] = test: Pre-emergence herbicidal action against HORMU; conditions: 320 g/ha; visual score after 3 weeks vs untreated controls
From the text: Seeds of monocotyledonous and dicotyledonous weed plants and crop plants are laid out in sandy loam soil in wood-fiber pots and covered with soil. The compounds of the invention, formulated in the form of wettable powders (WP) or as emulsion concentrates (EC), are then applied to the surface of the covering soil in the form of an aqueous suspension or emulsion at a water application rate equivalent to 600 to 800 l/ha, with addition of 0.2% wetting agent. After the treatment, the pots are placed in a greenhouse and kept under good growth conditions for the trial plants. The damage to the test plants is scored visually after a test period of 3 weeks by comparison with untreated controls (herbicidal activity in percent (%): 100% activity=the plants have died, 0% activity=like control plants). […] The tables below illustrate, in an illustrative manner, the post-emergence herbicidal action of the compounds of the invention, the herbicidal activity being stated in percent.

Viola tricolor [12] = test: Post-emergence herbicidal action against VIOTR
Summary of the method: as §2

Matricaria inodora [13] = test: Pre-emergence herbicidal action against MATIN; conditions: visual score after 3 weeks vs untreated controls
Summary of the method: as §1

Lolium rigidum = test: Pre-emergence herbicidal action against LOLRI; conditions: 320 g/ha
Summary of the method: as §1

Abutilon theophrasti [14] = test: Post-emergence herbicidal action against ABUTH
Summary of the method: as §2

Viola tricolor [15] = test: Pre-emergence herbicidal action against VIOTR
Summary of the method: as §1

Pharbitis purpurea [16] = test: Post-emergence herbicidal action against PHBPU; conditions: visual assessment about 3 weeks after treatment
Summary of the method: as §2

Veronica persica [17] = test: Post-emergence herbicidal action against VERPE; conditions: 80 g/ha, visual assessment about 3 weeks after treatment
Summary of the method: as §2

Polygonum convolvulus = test: Post-emergence herbicidal action against POLCO; conditions: 80 g/ha, visual assessment about 3 weeks after treatment
Protocol: (§3) Seeds of monocotyledonous and dicotyledonous weed and crop plants are laid out in sandy loam soil in wood-fiber pots, covered with soil and cultivated in a greenhouse under good growth conditions. 2 to 3 weeks after sowing, the test plants are treated at the one-leaf stage. The compounds of the invention, formulated in the form of wettable powders (WP) or as emulsion concentrates (EC), are then sprayed onto the green parts of the plants in the form of an aqueous suspension or emulsion at a water application rate equivalent to 600 to 800 l/ha, with addition of 0.2% wetting agent. After the test plants have been left to stand in the greenhouse under optimal growth conditions for about 3 weeks, the action of the preparations is assessed visually in comparison to untreated controls (herbicidal action in percent (%): 100% activity=the plants have died, 0% activity=like control plants). […] The tables below illustrate, in an illustrative manner, the post-emergence herbicidal action of the compounds of the invention, the herbicidal activity being stated in percent.

Stellaria media [18] = test: Post-emergence herbicidal action against STEME; conditions: visual assessment about 3 weeks after treatment
Summary of the method: as §2

Hordeum murinum [19] = test: Post-emergence herbicidal action against HORMU
Protocol: as §3

Pharbitis purpurea [20] = test: Pre-emergence herbicidal action against PHBPU; conditions: 320 g/ha; visual score after 3 weeks vs untreated controls
Summary of the method: as §1

Cyperus esculentus [21] = test: Post-emergence herbicidal action against CYPES; conditions: 80 g/ha, visual assessment about 3 weeks after treatment
Protocol: as §3

Matricaria inodora [22] = test: Post-emergence herbicidal action against MATIN; conditions: visual assessment about 3 weeks after treatment
Summary of the method: as §2

Cyperus esculentus [23] = test: Pre-emergence herbicidal action against CYPES; conditions: visual score after 3 weeks vs untreated controls
Summary of the method: as §1

Avena fatua [24] = test: Pre-emergence herbicidal action against AVEFA; conditions: 320 g/ha; visual score after 3 weeks vs untreated controls
Summary of the method: as §1

Avena fatua [25] = test: Post-emergence herbicidal action against AVEFA; conditions: visual assessment about 3 weeks after treatment
Summary of the method: as §2

Echinochloa crus-galli [26] = test: Post-emergence herbicidal action against ECHCG; conditions: visual assessment about 3 weeks after treatment
Summary of the method: as §2

CCCn1nnnc1NC(=O)c1ccc(C(F)(F)F)c(C(=O)N(C)CC)c1Cl [Example 3-124]
Pre-emergence action against ALOMY (Alopecurus myosuroides [1]; 80 g/ha): 80% | Pre-emergence action against ALOMY (Alopecurus myosuroides [1]; 320 g/ha): 90% | Pre-emergence action against ECHCG (Echinochloa crus-galli [2]; 80 g/ha): 80% | Pre-emergence action against ECHCG (Echinochloa crus-galli [2]; 320 g/ha): 100% | Pre-emergence action against VERPE (Veronica persica [3]): 90% | Post-emergence action against AMARE in % (Amaranthus retroflexus [4]; 5 g/ha): 100% | Post-emergence action against AMARE in % (Amaranthus retroflexus [4]; 20 g/ha): 100% | Post-emergence action against AMARE in % (Amaranthus retroflexus [4]; 80 g/ha): 100% | Pre-emergence action against ABUTH (Abutilon theophrasti [5]; 20 g/ha): 100% | Pre-emergence action against ABUTH (Abutilon theophrasti [5]; 80 g/ha): 100% | Pre-emergence action against ABUTH (Abutilon theophrasti [5]; Dosage column 320 g/ha (heading prints 3200 g/ha)): 100% | Pre-emergence action against AMARE (Amaranthus retroflexus [6]; 20 g/ha): 90% | Pre-emergence action against AMARE (Amaranthus retroflexus [6]; 80 g/ha): 100% | Pre-emergence action against AMARE (Amaranthus retroflexus [6]; 320 g/ha): 100% | Post-emergence action against SETVI in % (Setaria viridis [7]; 5 g/ha): 90% | Post-emergence action against SETVI in % (Setaria viridis [7]; 20 g/ha): 90% | Post-emergence action against SETVI in % (Setaria viridis [7]; 80 g/ha): 100% | Pre-emergence action against SETVI (Setaria viridis [8]; 80 g/ha): 90% | Pre-emergence action against SETVI (Setaria viridis [8]; 320 g/ha): 100% | Post-emergence action against ALOMY (Alopecurus myosuroides [9]; 20 g/ha): 80% | Post-emergence action against ALOMY (Alopecurus myosuroides [9]; 80 g/ha): 100% | Pre-emergence action against STEME (Stellaria media [10]; 20 g/ha): 90% | Pre-emergence action against STEME (Stellaria media [10]; 80 g/ha): 100% | Pre-emergence action against STEME (Stellaria media [10]; 320 g/ha): 100% | Pre-emergence action against HORMU (Hordeum murinum [11]): 80% | Post-emergence action against VIOTR in % (Viola tricolor [12]; 5 g/ha): 100% | Post-emergence action against VIOTR in % (Viola tricolor [12]; 20 g/ha): 100% | Post-emergence action against VIOTR in % (Viola tricolor [12]; 80 g/ha): 100% | Pre-emergence action against MATIN (Matricaria inodora [13]; 20 g/ha): 80% | Pre-emergence action against MATIN (Matricaria inodora [13]; 80 g/ha): 90% | Pre-emergence action against MATIN (Matricaria inodora [13]; 320 g/ha): 90% | Pre-emergence action against LOLRI (Lolium rigidum): 80% | Post-emergence action against ABUTH (Abutilon theophrasti [14]; 5 g/ha): 100% | Post-emergence action against ABUTH (Abutilon theophrasti [14]; 20 g/ha): 100% | Post-emergence action against ABUTH (Abutilon theophrasti [14]; 80 g/ha): 100% | Pre-emergence action against VIOTR (Viola tricolor [15]; 80 g/ha): 80% | Pre-emergence action against VIOTR (Viola tricolor [15]; 320 g/ha): 100% | Post-emergence action against PHBPU in % (Pharbitis purpurea [16]; 5 g/ha): 90% | Post-emergence action against PHBPU in % (Pharbitis purpurea [16]; 20 g/ha): 90% | Post-emergence action against PHBPU in % (Pharbitis purpurea [16]; 80 g/ha): 100% | Post-emergence action against VERPE in % (Veronica persica [17]): 80% | Post-emergence action against POLCO in % (Polygonum convolvulus): 80% | Post-emergence action against STEME in % (Stellaria media [18]; 5 g/ha): 90% | Post-emergence action against STEME in % (Stellaria media [18]; 20 g/ha): 100% | Post-emergence action against STEME in % (Stellaria media [18]; 80 g/ha): 100% | Post-emergence action against HORMU in % (Hordeum murinum [19]; 20 g/ha): 80% | Post-emergence action against HORMU in % (Hordeum murinum [19]; 80 g/ha): 80% | Pre-emergence action against PHBPU (Pharbitis purpurea [20]): 90% | Post-emergence action against CYPES in % (Cyperus esculentus [21]): 80% | Post-emergence action against MATIN in % (Matricaria inodora [22]; 5 g/ha): 90% | Post-emergence action against MATIN in % (Matricaria inodora [22]; 20 g/ha): 100% | Post-emergence action against MATIN in % (Matricaria inodora [22]; 80 g/ha): 100% | Pre-emergence action against CYPES (Cyperus esculentus [23]; 80 g/ha): 80% | Pre-emergence action against CYPES (Cyperus esculentus [23]; 320 g/ha): 90% | Pre-emergence action against AVEFA (Avena fatua [24]): 100% | Post-emergence action against AVEFA in % (Avena fatua [25]; 20 g/ha): 80% | Post-emergence action against AVEFA in % (Avena fatua [25]; 80 g/ha): 100% | Post-emergence action against ECHCG in % (Echinochloa crus-galli [26]; 5 g/ha): 90% | Post-emergence action against ECHCG in % (Echinochloa crus-galli [26]; 20 g/ha): 100% | Post-emergence action against ECHCG in % (Echinochloa crus-galli [26]; 80 g/ha): 100%
